From ChEMBL document CHEMBL4024706 (Eur J Med Chem, 2017)

Tests used:
[1] = system: Tyrosine-protein kinase ABL1 (Homo sapiens), P00519 [Q252H]; assay: Inhibition of human phosphorylated ABL1 Q252H mutant expressed in mammalian expression system assessed as residual activity at 1 uM by Kinomescan method relative to control
[2] = biological target: Serine/threonine-protein kinase MARK1 (Homo sapiens) (UniProt Q9P0L2); assay: Inhibition of wild-type human partial length MARK1 (Q30 to T341 residues) expressed in bacterial expression system assessed as residual activity at 1 uM by Kinomescan method relative to control
Sequence of Serine/threonine-protein kinase MARK1 (Homo sapiens) (Q9P0L2 whole entry, looked up, the tested form may be a part): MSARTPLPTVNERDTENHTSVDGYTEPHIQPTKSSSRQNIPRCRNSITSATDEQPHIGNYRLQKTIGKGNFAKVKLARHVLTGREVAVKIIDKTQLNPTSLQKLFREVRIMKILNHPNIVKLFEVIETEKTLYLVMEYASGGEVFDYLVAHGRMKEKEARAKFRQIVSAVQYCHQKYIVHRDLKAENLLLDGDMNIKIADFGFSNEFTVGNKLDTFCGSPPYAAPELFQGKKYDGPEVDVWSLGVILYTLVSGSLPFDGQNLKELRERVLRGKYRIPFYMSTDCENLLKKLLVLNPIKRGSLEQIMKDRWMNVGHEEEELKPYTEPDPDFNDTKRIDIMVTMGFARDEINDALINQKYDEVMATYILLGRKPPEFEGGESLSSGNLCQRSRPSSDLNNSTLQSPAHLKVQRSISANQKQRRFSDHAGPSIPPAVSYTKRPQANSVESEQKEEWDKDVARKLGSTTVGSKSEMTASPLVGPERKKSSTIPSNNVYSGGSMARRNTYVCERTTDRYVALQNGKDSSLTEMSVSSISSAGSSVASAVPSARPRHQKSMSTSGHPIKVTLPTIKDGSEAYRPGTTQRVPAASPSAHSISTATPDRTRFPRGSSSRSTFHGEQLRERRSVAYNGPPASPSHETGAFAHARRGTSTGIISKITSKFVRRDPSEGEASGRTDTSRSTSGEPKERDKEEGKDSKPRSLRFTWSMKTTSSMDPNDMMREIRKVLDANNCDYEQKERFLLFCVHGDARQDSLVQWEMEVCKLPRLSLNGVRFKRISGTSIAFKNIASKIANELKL

[3] = system: Tyrosine-protein kinase ABL1 (Homo sapiens), P00519 [Y253F]; assay: Inhibition of human phosphorylated ABL1 Y253F mutant (S229 to K512 residues) expressed in mammalian expression system assessed as residual activity at 1 uM by Kinomescan method relative to control
[4] = biological target: Ephrin type-A receptor 6 (Homo sapiens) (UniProt Q9UF33); assay: Inhibition of wild-type human partial length EPHA6 (Y700 to E1046 residues) expressed in bacterial expression system assessed as residual activity at 1 uM by Kinomescan method relative to control
Sequence of Ephrin type-A receptor 6 (Homo sapiens) (Q9UF33 whole entry, the tested form may be a part): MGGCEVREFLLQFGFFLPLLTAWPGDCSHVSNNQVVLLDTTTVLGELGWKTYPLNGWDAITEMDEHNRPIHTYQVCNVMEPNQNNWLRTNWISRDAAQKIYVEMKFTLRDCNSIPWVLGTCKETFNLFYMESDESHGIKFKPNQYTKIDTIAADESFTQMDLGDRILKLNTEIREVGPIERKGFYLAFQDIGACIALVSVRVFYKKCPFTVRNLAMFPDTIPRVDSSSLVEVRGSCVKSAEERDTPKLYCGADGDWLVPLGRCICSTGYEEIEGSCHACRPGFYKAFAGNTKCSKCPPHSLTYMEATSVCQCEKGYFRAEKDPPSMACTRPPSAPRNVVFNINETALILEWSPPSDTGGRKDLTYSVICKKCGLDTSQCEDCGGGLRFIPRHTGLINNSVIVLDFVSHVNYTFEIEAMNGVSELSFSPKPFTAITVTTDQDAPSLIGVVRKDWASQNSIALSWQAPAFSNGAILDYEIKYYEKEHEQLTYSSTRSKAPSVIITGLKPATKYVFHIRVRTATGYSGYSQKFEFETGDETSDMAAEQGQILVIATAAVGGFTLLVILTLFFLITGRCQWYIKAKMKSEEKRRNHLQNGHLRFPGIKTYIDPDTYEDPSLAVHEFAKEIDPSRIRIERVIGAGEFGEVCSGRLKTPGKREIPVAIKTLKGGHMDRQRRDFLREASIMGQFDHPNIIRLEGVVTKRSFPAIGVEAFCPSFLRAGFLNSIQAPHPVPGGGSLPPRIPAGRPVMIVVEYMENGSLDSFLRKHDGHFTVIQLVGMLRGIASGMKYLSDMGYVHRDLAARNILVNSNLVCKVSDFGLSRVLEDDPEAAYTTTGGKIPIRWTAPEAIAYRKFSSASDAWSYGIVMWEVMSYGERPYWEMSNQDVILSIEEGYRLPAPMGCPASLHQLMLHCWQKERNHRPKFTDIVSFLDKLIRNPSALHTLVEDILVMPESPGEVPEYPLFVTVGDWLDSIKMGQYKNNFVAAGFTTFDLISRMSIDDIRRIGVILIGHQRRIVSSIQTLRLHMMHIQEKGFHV

[5] = biological target: Phosphatidylinositol 4-kinase beta (Homo sapiens) (UniProt Q9UBF8); assay: Inhibition of wild-type human full length PIK4CB (M1 to M828 residues) expressed in mammalian expression system assessed as residual activity at 1 uM by Kinomescan method relative to control
[6] = biological target: Receptor tyrosine-protein kinase erbB-4 (Homo sapiens) (UniProt Q15303); assay: Inhibition of wild-type human partial length ERBB4 (L690 to K994 residues) expressed in bacterial expression system assessed as residual activity at 1 uM by Kinomescan method relative to control
Sequence of Receptor tyrosine-protein kinase erbB-4 (Homo sapiens) (Q15303 whole entry, the tested form may be a part): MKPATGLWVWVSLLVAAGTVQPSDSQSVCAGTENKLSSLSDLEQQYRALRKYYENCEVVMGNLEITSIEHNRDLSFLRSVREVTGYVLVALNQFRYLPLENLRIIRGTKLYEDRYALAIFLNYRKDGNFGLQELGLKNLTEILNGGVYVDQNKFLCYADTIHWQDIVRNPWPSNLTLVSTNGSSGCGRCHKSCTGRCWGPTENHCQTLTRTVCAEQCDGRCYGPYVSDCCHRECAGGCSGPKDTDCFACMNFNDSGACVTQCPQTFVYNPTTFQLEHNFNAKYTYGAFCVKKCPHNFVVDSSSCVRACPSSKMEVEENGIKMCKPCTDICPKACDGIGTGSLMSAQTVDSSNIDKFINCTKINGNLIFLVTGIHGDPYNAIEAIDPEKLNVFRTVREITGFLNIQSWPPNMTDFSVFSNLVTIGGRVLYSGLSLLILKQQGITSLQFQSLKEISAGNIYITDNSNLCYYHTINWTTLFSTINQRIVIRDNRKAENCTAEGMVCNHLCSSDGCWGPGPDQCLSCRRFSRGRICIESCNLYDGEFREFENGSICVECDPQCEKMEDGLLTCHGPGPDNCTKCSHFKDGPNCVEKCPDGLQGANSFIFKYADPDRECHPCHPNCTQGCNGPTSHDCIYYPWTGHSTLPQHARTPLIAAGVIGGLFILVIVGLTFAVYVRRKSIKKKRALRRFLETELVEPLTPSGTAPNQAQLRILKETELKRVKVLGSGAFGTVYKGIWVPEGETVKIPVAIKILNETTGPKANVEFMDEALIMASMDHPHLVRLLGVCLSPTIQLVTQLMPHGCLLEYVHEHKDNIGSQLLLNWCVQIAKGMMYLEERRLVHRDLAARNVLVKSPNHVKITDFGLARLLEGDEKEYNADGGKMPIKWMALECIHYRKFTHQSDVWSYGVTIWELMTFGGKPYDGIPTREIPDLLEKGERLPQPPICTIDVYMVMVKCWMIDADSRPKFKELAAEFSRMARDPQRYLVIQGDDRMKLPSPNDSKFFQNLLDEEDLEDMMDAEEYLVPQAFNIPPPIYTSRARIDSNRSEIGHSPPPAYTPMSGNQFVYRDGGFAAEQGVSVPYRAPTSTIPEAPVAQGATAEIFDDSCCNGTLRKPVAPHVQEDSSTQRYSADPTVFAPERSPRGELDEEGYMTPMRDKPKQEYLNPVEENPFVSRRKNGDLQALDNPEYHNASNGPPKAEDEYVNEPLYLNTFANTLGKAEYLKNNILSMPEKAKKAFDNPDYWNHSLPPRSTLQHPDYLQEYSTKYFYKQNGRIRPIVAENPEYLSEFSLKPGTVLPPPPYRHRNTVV

[7] = biological target: Serine/threonine-protein kinase MAK (Homo sapiens) (UniProt P20794); assay: Inhibition of wild-type human partial length MAK (M1 to P314 residues) expressed in bacterial expression system assessed as residual activity at 1 uM by Kinomescan method relative to control
Sequence of Serine/threonine-protein kinase MAK (Homo sapiens) (P20794 whole entry, the tested form may be a part): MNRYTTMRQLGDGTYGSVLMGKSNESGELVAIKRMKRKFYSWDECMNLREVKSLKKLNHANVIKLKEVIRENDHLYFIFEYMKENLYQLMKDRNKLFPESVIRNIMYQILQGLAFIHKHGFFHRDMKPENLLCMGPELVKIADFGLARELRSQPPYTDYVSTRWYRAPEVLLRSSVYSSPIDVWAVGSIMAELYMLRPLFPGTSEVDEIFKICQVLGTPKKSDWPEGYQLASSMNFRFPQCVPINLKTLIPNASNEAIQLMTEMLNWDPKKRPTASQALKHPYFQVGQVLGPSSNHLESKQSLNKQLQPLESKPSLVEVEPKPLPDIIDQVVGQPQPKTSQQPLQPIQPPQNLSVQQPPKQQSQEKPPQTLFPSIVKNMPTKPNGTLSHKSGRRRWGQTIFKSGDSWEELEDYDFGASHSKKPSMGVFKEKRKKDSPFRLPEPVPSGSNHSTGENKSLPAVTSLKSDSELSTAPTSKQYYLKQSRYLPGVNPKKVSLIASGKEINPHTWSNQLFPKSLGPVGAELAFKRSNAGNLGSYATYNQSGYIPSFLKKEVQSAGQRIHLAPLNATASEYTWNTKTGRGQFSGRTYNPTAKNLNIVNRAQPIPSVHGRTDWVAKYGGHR

SKM-1 = assay: Growth inhibition of human SKM1 cells; format: functional; conditions: Homo sapiens, SKM-1
[8] = AUC (0 to t) in Sprague-Dawley rat at 1 mg/kg, iv by LC-MS/MS method; format: ADME, organism-based; conditions: in vivo
[9] = biological target: Mitogen-activated protein kinase 13 (Homo sapiens) (UniProt O15264); assay: Inhibition of wild-type human full length p38-delta (M1 to L365 residues) expressed in bacterial expression system assessed as residual activity at 1 uM by Kinomescan method relative to control
Sequence of Mitogen-activated protein kinase 13 (Homo sapiens) (O15264 whole entry, the tested form may be a part): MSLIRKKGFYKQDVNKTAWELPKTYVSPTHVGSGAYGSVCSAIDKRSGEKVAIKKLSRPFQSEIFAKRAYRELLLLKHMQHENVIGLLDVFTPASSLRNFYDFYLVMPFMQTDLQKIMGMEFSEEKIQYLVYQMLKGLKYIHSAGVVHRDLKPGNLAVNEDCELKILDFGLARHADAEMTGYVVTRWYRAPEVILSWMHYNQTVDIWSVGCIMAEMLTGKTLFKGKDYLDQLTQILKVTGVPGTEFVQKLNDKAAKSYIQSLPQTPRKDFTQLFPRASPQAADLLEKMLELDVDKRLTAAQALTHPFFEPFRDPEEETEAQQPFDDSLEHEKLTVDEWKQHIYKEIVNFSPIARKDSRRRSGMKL

U2932 = assay: Induction of apoptosis in human U2932 cells assessed as induction of caspase-3 cleavage after 48 hrs by immunoblot; format: functional, cell-based
[10] = biological target: Cyclin-dependent kinase 2 homolog (Plasmodium falciparum (isolate 3D7)) (UniProt P61075); assay: Inhibition of wild-type Plasmodium falciparum isolate 3D7 full length PK5 (M1 to N288 residues) expressed in mammalian expression system assessed as residual activity at 1 uM by Kinomescan method relative to control
Sequence of Cyclin-dependent kinase 2 homolog (Plasmodium falciparum (isolate 3D7)) (P61075 whole entry, the tested form may be a part): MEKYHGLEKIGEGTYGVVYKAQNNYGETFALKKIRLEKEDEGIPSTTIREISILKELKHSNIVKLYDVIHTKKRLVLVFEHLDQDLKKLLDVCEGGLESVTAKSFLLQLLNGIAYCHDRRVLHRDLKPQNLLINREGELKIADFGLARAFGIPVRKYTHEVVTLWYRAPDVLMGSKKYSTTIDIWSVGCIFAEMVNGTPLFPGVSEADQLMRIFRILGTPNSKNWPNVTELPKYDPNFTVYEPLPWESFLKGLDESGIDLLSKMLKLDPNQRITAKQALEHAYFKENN

[11] = biological target: Ribosomal protein S6 kinase beta-1 (Homo sapiens) (UniProt P23443); assay: Inhibition of wild-type human partial length S6K1 (M1 to S421 residues) expressed in mammalian expression system assessed as residual activity at 1 uM by Kinomescan method relative to control
Sequence of Ribosomal protein S6 kinase beta-1 (Homo sapiens) (P23443 whole entry, looked up, the tested form may be a part): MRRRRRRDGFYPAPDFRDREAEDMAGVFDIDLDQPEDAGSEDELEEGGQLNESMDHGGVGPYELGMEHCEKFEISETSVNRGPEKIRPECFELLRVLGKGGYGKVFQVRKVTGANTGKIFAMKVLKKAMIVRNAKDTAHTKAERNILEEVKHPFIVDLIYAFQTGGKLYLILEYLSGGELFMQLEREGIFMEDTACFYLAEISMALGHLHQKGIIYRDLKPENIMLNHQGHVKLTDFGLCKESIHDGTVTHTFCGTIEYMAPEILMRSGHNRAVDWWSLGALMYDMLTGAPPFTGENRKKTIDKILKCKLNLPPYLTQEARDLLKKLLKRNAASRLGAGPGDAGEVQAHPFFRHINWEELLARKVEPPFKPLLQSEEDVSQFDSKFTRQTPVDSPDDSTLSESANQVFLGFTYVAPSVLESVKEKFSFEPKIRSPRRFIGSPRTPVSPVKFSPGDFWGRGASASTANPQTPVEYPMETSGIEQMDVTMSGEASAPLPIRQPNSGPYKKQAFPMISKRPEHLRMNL

[12] = biological target: Tyrosine-protein kinase receptor TYRO3 (Homo sapiens) (UniProt Q06418); assay: Inhibition of wild-type human partial length TYRO3 (S497 to T814 residues) expressed in bacterial expression system assessed as residual activity at 1 uM by Kinomescan method relative to control

## C=CC(=O)Nc1cc(Nc2cc(-c3cccc(NC(=O)c4ccc(C(C)(C)C)cc4)c3C)cn(C)c2=O)ccc1C(=O)N1CCOCC1
[1]
  Activity: 100%
[2]
  Activity: 88%
[3]
  Activity: 97%
[4]
  Activity: 93%
[5]
  Activity: 90%
[6]
  Activity: 95%
[7]
  Activity: 84%
SKM-1
  GI50: 7.1 µM
[8]
  AUC(0-t): 182 ng·h/mL
[9]
  Activity: 84%
U2932
  Activity: Dose-dependent effect
[10]
  Activity: 88%
[11]
  Activity: 100%
[12]
  Activity: 75%
